Values quoted from earlier work as cited in patent US20170112824A1, “COMBINATION THERAPIES FOR THE TREATMENT OF FUNGAL INFECTIONS” (priority 2015, published 2017).

Assays:
[1] = in vivo

absorption [1]: readily absorbed
water solubility: water-soluble
SMILES: NC(=O)NO [Hydroxyurea, hydroxyurea]
